The results in this text go back to article PMC10626537, “Pharmacokinetic and pharmacodynamic studies of nicotine in rat brain: a simultaneous investigation of nicotine metabolites and the release of neurotransmitters in vivo” (Frontiers in Chemistry, 2023).

Series [1] can be described thus: Online brain microdialysis UHPLC-HRMS/MS pharmacokinetics of Nic and its main metabolites in rat NAc after single Nic injection. It counts as in vivo. Also on record: AUC0–360 min: unit not given here. The following applies: for Cmax / MRT / Tmax / half-life: rat, brain microdialysate (NAc), ip; for half-life: read-out: t 1/2z. On the procedure: (§1) To inhibit the main Nic metabolic enzyme CYP2B in the brain, rats received intraperitoneal injections of proadifen (50 mg kg^−1·day^−1, 4 d) ([Song et al., 2012]). Control animals were pretreated with saline using the same protocol. All the rats were sacrificed by cardiac perfusion after microdialysis sampling. The brain tissues were separated and divided into four parts (cerebrum, cerebellum, diencephalon, and brainstem). The CYP2B activity in different rat brain regions was determined following the instructions of the GENMED CYP2B1 activity fluorescence quantitative detection kit (GENMED SCIENTIFICS INC. U.S.A, GMS18019.1).
(§2) The mass spectrometer was operated in positive ionization mode. […] The normalized collision energy was set at 10%.

In series [2] the test system is release of neurotransmitters in the NAc. The series is described as follows: Microdialysis release of neurotransmitters in rat NAc after Nic exposure under regulation of Nic metabolism. It counts as in vivo. The conditions noted are these: for peak concentration of DOPAC / peak concentration of HVA: after Nic stimulation (2 mg kg^-1 ip). The protocol: as §1, §2
Series [3] deals with monoamine neurotransmitters in rat striatum. The conditions noted are these: rat striatum dialysate; after 3 h of Nic exposure (2 mg kg^-1 ip).
Description: Anesthesia was induced with 3% isoflurane in an induction chamber before surgical procedures and was placed in a stereotaxic frame equipped with a rat ear and bite bar. Rat was maintained under anesthesia with 1%–2% isoflurane during operation procedures. And the cranium above the ventral striatum (coordinates relative to bregma: anterior/posterior (AP), +1.2 mm; medial/lateral (ML), −2.4 mm; dorsal/ventral (DV), −6.0 mm) or NAc (coordinates relative to bregma: anterior/posterior (AP), +1.7 mm; medial/lateral (ML), −1.5 mm; dorsal/ventral (DV), −6.5 mm) was exposed to implant the probe guide-cannula (CMA/12), two screws were implanted into the skull to serve as an anchor and dental cement was used as an adhesive to fixed the probe guide-cannula. To avoid the interference of neurotransmitter changes due to physical stimulation of pain receptors during intraperitoneal injection of Nic, Nic was injected with the aid of an administration catheter (Instech, BTPU-040, 6.35 × 10.16 mm, America), which was implanted in the abdomen, the other end of the catheter was passed under the skin and sent to the back and sealed with a plug (Instech, PNP3M-F22R, America). The rats were housed individually and allowed to recover from surgery for at least 24 h.
For in vivo microdialysis sampling, the probe (CMA/12 Elite, membrane parameters: polyarylethersulfone material; 2 mm length; φ 0.5 mm; 20 kDa cut-off) was inserted into the brain through the cannula. After implantation, the probe was perfused with Ringer’s solution by the syringe pump (CMA/402, piston propulsion speed: 2.4 μm·min^-1–1.2 mm min^-1; velocity range: 0.1 μL·min^-1–20 μL min^-1; precision: −1.5%-1.5%) at fixed flow rates (1.5 μL min^-1), and the dialysates were analyzed under the optimized UHPLC-HRMS/MS condition directly. Intraperitoneal administration of 2 mg kg^-1 Nic was performed until stable levels of neurotransmitters were obtained, which was defined as the mean value of neurotransmitter concentrations in six consecutive samples varied by no more than 10%.
UHPLC-HRMS/MS system was performed on Dionex Ultimate 3000 UHPLC equipped with a Q-Exactive mass spectrometer and electrospray ionization (ESI) interface (Thermo Fisher Scientific, Germany). Chromatographic separation was achieved by the pentafluorophenyl phase column (Discovery® HS F5-3 column, 2.1 × 150 mm, 3 μm) with linear binary gradient elution, at a flow rate of 0.5 mL min^-1. Eluent A was 10 mM ammonium acetate with FA (0.1%, v/v) dissolved in water, and eluent B was acetonitrile with 0.1% FA (v/v). […] From 3 to 6 min, a linear gradient was applied from 45% to 75% B and then return linearly to the initial condition at 9 min and the column was allowed to equilibrate for 1 min.
The mass spectrometer was operated in positive ionization mode. The optimized mass spectrometer parameters were as follows: a resolution of 35000; automatic gain control (AGC) target was 2.0 e^5; maximum injection time (IT) was 100 m; 3.5 kV for spray voltage; ion transfer tube temperature, 350°C; S-Lens RF level, 60%. The isolation window of the precursor ions was done using a quadrupole with an isolation window of m/z 1. The normalized collision energy was set at 10%. Analytes were determined by a parallel reaction monitoring (PRM) method by acquiring two transitions for each compound. The most specific transition was selected for the quantitative purpose. All data were gathered and analyzed using Xcalibur 2.2 software (Thermo Fisher Scientific, Germany). […]
Another series deals with T1, CYP2B1 (Rattus norvegicus, UniProt P00176).
T1 construct: The brain tissues were separated and divided into four parts (cerebrum, cerebellum, diencephalon, and brainstem); from tissue; host or cells: brain tissue (cerebrum, cerebellum, diencephalon, brainstem) of male Sprague Dawley rats
T1 sequence (P00176 1-491): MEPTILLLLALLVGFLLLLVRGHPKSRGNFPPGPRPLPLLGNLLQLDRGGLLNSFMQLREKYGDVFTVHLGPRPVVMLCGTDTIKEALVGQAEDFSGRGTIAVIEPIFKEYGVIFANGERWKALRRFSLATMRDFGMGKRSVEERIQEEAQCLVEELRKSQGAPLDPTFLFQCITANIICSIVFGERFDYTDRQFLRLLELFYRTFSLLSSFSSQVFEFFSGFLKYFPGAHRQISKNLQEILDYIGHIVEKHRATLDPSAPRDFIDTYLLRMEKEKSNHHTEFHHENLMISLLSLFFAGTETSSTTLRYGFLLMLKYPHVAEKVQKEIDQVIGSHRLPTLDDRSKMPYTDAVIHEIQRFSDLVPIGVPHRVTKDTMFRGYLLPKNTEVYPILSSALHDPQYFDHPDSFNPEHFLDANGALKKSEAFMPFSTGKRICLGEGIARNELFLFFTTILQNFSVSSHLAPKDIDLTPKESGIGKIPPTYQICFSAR
The series is described as follows: CYP2B1 activity in rat brain tissue after proadifen pretreatment (GENMED CYP2B1 activity fluorescence quantitative detection kit). It counts as in vivo. The conditions noted are these: 4 days. On the procedure: as §1

Setting [4] is: rat NAc, Nic 2 mg kg^-1 ip, Prodifine (proadifen) pretreated.
[5] abbreviates: rat NAc, Nic 2 mg kg^-1 ip, saline-pretreated.
Where [6] appears, read: 2 mg/kg, rat NAc, Nic 2 mg kg^-1 ip, Prodifine (proadifen) pretreated.
Where [7] appears, read: 2 mg/kg, rat NAc, Nic 2 mg kg^-1 ip, saline-pretreated.
The mark [8] stands for this setting: after Nic exposure, proadifen pretreatment group.
The mark [9] stands for this setting: Nic 2 mg kg^-1 ip, proadifen vs saline pretreatment.

Read-outs that look alike come from different tables or passages of the source.

For orientation: CL/F means the apparent clearance, not corrected for the fraction that reaches the circulation. Broadly, the Cmax is the maximum level reached in the sampled fluid or tissue. The term MRT denotes a mean duration of stay, worked out from the concentration-time curve. A word on the Tmax: it is the time from dosing to the highest level. As for `CN1C(=O)CC[C@H]1c1cccnc1` [Cot, (−) cotinine], the CL/F in series [1] (setting [4]) worked out at 7.0 mL/min. Moreover, the CL/F in series [1] (setting [5]) was 9.0 mL/min. Further, in series [1] (setting [6]), the Cmax came out at 20.3 ng/mL, the MRT is 3.12 h, the Tmax is 2 h and the half-life was determined as 2.19 h. Besides, in series [1] (setting [7]), the Cmax worked out at 16.7 ng/mL, the MRT is 3.11 h, the Tmax was 2.67 h and the half-life came out at 1.74 h.
Consider `C[N@+]1([O-])CCC[C@H]1c1cccnc1` [NNO, (1′S, 2′S)-nicotine-1′-oxide], for which, in series [1] (rat NAc dialysate, Nic 2 mg kg^-1 ip single injection, Prodifine (proadifen 50 mg kg^-1 d^-1 ip, 4 days) pretreated, two-compartmental model), the “AUC0–360 min” value was found to be 0.6. In addition, the CL/F in series [1] (setting [4]) turned out to be 3.2 mL/min. Also, in series [1] (setting [5]), the CL/F came to 5.0 mL/min. For the same compound, the “decrease of C max (level) of Nic metabolite after CYP2B1 inhibition compared with control rats” value in series [1] (rat brain, Nic 2 mg kg^-1 ip, proadifen-pretreated vs saline control) came out at 65.6%. Besides, in series [1] (setting [6]), the Cmax was determined as 5.2 ng/mL, the MRT was 1.57 h, the Tmax is 0.667 h and the half-life turned out to be 0.895 h. Also, in series [1] (setting [7]), the Cmax came out at 15.1 ng/mL, the MRT is 2.39 h, the Tmax was 0.5 h and the half-life is 0.802 h.
On to `CN1CCC[C@H]1c1cccnc1` [Nic, (−) nicotine], for which the “time by which Nic was almost completely cleared from the rat brain” value in series [1] (Nic 2 mg kg^-1 ip) is listed as not above 360 min. For the same compound, in series [1] (setting [4]), the CL/F came to 14.0 mL/min. In series [1] (setting [5]), the CL/F stood at 25.0 mL/min. Besides, the “brain C max of Nic in proadifen group relative to saline group” value in series [1] (rat brain, Nic 2 mg kg^-1 ip, proadifen-pretreated vs saline) is 1.26 times. Moreover, in series [1] (2 mg kg^-1, rat NAc, Nic 2 mg kg^-1 ip, Prodifine (proadifen) pretreated), the Cmax was 1220 ng/mL. Also, in series [1] (setting [6]), the Cmax was 1220 ng/mL, the MRT was 1.89 h, the Tmax is 0.5 h and the half-life was found to be 1.28 h. Besides, in series [1] (setting [7]), the Cmax was determined as 968 ng/mL, the MRT is 1.43 h, the Tmax is 0.5 h and the half-life is 2.15 h. Further, in series [2] (setting [8]), the “C max of 5-HIAA” value is on record as ~240 % of baseline and the “C max of 5-HT” value is on record as ~390 % of baseline. In addition, in series [2] (after Nic injection), the “peak level of Ach relative to baseline” value is “almost doubled”. Further, in series [2] (proadifen pretreated group), the “peak concentration of DOPAC” value is listed as ~340 % of the baseline and the “peak concentration of HVA” value was ~330 % of the baseline. Moreover, in series [2] (saline group), the “peak concentration of DOPAC” value was ~290 % of the baseline and the “peak concentration of HVA” value is on record as ~270 % of the baseline. In series [3], the “average level of 5-HIAA” value turned out to be 234.4 µg/L, the “average level of 5-HT” value was determined as 45.9 µg/L, the “average level of DA” value is 25.1 µg/L and the “average level of DOPAC” value is 99.2 µg/L. Also, the “average level of HVA” value in series [3] is 169.8 µg/L.
On to `CCCC(C(=O)OCCN(CC)CC)(c1ccccc1)c1ccccc1` [proadifen], for which the “decrease of whole brain CYP2B1 activity on average” value at CYP2B1 (proadifen 50 mg kg^-1 d^-1 ip, vs saline-pretreated rats) was found to be 36.9%. Further, the “effect on brain CYP2B1 activity” value at CYP2B1 (proadifen 50 mg·kg^−1·d^−1 ip) is on record as “significant inhibition”. For the same compound, the “effect of proadifen inhibition on Nic-induced peak level of Ach” value in series [2] (Nic 2 mg kg^-1 ip) is reported as “did not further increased it”. For the same compound, in series [2] (setting [9]), the “average level of GABA in proadifen group relative to saline group” value is recorded as 2.7 times and the “average level of serotonin under inhibition of nicotine metabolism relative to control” value is 1.2 times.
